This note sets out measurements from patent US11753395B2 (Kinnate Biopharma Inc., priority 2021, dated 2023).

pEC50, pIC50: −log10 of the molar value.

One assay has as its target T1, Ba/F3-TPR-MET cells (Homo sapiens, UniProt P08581).
T1 construct: fused on or other part: P12270 (Nucleoprotein TPR)
Nature of the assay: CellTiter-Glo Cell Viability Assay, Ba/F3-TPR-MET. It is filed as cell-based. The settings on record: 72 hours. How it is done:
(§1) Ba/F3-TPR-MET and Ba/F3-TPR-MET-D1228N cells were seeded at 3000 cells per well in a 96 well plate in 90 μL growth media and allowed to incubate overnight at 37° C. with 5% CO2. The following day, compounds were serially diluted from a 10 mM top dose for a 9-point 3-fold dilution curve in DMSO. Following a 100-fold dilution in growth media, a further 10-fold dilution was made into the cell plate for a final volume of 100 μL and 0.1% DMSO. Compounds and cells were incubated together for 72 hours at 37° C. with 5% CO2. The CellTiter-Glo® 2.0 Assay determines the number of viable cells in culture by quantifying ATP, which indicates the presence of metabolically active cells. Luminescence readout is directly proportional to the number of viable cells in culture. CellTiter-Glo reagent (Promega, G9243) and cell plates were allowed to equilibrate to room temperature for at least 15 min, then 100 μL of CellTiter-Glo was added to each well for a 1:1 ratio of reagent to media. Samples were placed on a shaker for 2 min prior to a 30 min incubation at room temperature protected from light. Luminescence was read on a Perkin Elmer Envision plate reader 2105 and used to calculate ICso values within the Dotmatics Knowledge Solutions Studies curve fitting environment (Dotmatics, Bishops Stortford, UK, CM23) and are presented in Table 2.

The target in another assay is T2, MET D1228N (Homo sapiens, UniProt P08581, D1228N).
T2 construct: purchased Signalchem M52-12IG
The experiment in a line: MET D1228N Mobility Shift Assay. The settings on record: biochemical assay IC50; 100 μM ATP, 60 minute kinase reaction. The protocol:
(§2) Small molecule inhibition of MET D1228N kinase activity was evaluated using a fluorescence -based microfluidic mobility shift assay. MET D1228N catalyzes the production of ADP from ATP during phosphoryl transfer to the substrate peptide, FLPeptide30 (5-FAM-KKKKEEIYFFF -CONH2) (Perkin Elmer, 760430). MET D1228N enzyme (Signalchem, M52-12IG) at 0.313 nM was prepared with 10 mM MgCl2 and 1.5 μM substrate peptide in a buffer containing 50 mM HEPES, 1 mM EGTA, 0.01% Brij-35, 0.05% BSA, and 2 mM DTT and pre-incubated at room temperature for 30 min prior to the start of the reaction. 100 μM ATP was added to start the reaction. The mobility shift assay electrophoretically separates the fluorescently labeled peptides (substrate and phosphorylated product) following the 60 minute kinase reaction. The reaction was terminated by addition of 0.5 M EDTA. Both substrate and product were measured and the ratio of these values used to generate % conversion of substrate to product by the LabChip EZ reader (Perkin Elmer). ICso values were calculated using the inhibition of conversion ratio using Dotmatics Knowledge Solutions Studies curve fitting environment (Dotmatics, Bishops Stortford, UK, CM23) and are presented in Table 2.

Assay [1] addresses T3, Ba/F3-TPR-MET-D1228N cells (Homo sapiens, UniProt P08581, D1228N, cells depend on it).
T3 construct: fused on or other part: P12270 (Nucleoprotein TPR)
Nature of the assay: CellTiter-Glo Cell Viability Assay, Ba/F3-TPR-MET-D1228N. It is filed as cell-based. The settings on record: 72 hours. How it is done: as §1

The target of the next assay is T4, MET (Homo sapiens, UniProt P08581).
T4 construct: purchased Carna Biosciences 08-151
The experiment in a line: MET Mobility Shift Assay. As to conditions: biochemical assay IC50; 100 μM ATP, 60 minute kinase reaction. The protocol:
as §2, with “MET” for “MET D1228N”, “a fluorescence-based” for “a fluorescence -based”, “FLPeptide30 (5-FAM-KKKKEEIYFFF-CONH2)” for “FLPeptide30 (5-FAM-KKKKEEIYFFF -CONH2)”, “MET enzme (Carna Biosciences, 08-151)” for “MET D1228N enzyme (Signalchem, M52-12IG)”, “at 0.625” for “at 0.313”

As usually defined, the pEC50 is the EC50 on a negative log10 scale, so that one unit is a factor of ten. Higher therefore signals a small EC50. In general, pIC50 refers to the IC50 on a negative log10 scale, so that one unit is a factor of ten. For the compound `COCCOc1ccc2c(Oc3c(F)cc(NC(=O)c4cnccc4OC4CC4)cc3F)ccnc2c1` [Example 105, 4-cyclopropoxy-N-(3,5-difluoro-4-{[7-(2-methoxyethoxy)quinolin-4-yl]oxy}phenyl)pyridine-3-carboxamide], the pEC50 at Ba/F3-TPR-MET cells was 6.00 to 7.00; in assay [1], at least 7.00. Besides, the pIC50 on MET D1228N and on MET was at least 7.00 throughout.
For `CNCCOc1cc2nccc(Oc3c(F)cc(NC(=O)c4cnccc4OC[C@H](C)F)cc3F)c2cc1OC` [Example 62, N-[3,5-difluoro-4-({6-methoxy-7-[2-(methylamino)ethoxy]quinolin-4-yl}oxy)phenyl]-4-[(2S)-2-fluoropropoxy]pyridine-3-carboxamide], the pEC50 (on Ba/F3-TPR-MET cells; in assay [1]) was at least 7.00 in each case. Also, the pIC50 at MET D1228N and at MET was at least 7.00 each time.
With `CCOc1ccncc1C(=O)Nc1cc(F)c(Oc2ccnc3cc(OCCNC)c(OC)cc23)c(F)c1F` [Example 51, 4-ethoxy-N-[2,3,5-trifluoro-4-({6-methoxy-7-[2-(methylamino)ethoxy]quinolin-4-yl}oxy)phenyl]pyridine-3-carboxamide], the values for the negative-log EC50 (pEC50) (on Ba/F3-TPR-MET cells; in assay [1]) were 6.00 to 7.00 and at least 7.00, respectively. In addition, the pIC50 at MET D1228N and on MET was at least 7.00 throughout.
With `CNCCOc1cc2nccc(Oc3c(F)cc(NC(=O)c4cnc(C)cc4OC)cc3F)c2cc1OC` [Example 45, N-(3,5-difluoro-4-((6-methoxy-7-(2-(methylamino)ethoxy)quinolin-4-yl)oxy)phenyl)-4-methoxy-6-methylpyridine-3-carboxamide], the pEC50 (on Ba/F3-TPR-MET cells; in assay [1]) was 6.00 to 7.00 each time. In addition, the pIC50 on MET D1228N and on MET was at least 7.00 each time.
For the compound `CNCCOc1cc2nccc(Oc3c(F)cc(NC(=O)c4cnccc4OC4CC4)c(F)c3F)c2cc1OC` [Example 93, 4-cyclopropoxy-N-[2,3,5-trifluoro-4-({6-methoxy-7-[2-(methylamino)ethoxy]quinolin-4-yl}oxy)phenyl]pyridine-3-carboxamide], the negative-log EC50 (pEC50) (on Ba/F3-TPR-MET cells; in assay [1]) was at least 7.00 each time. Moreover, the negative-log IC50 (pIC50) at MET D1228N and on MET was at least 7.00 each time.
For `CC(C)(CO)Oc1ccc2c(Oc3c(F)cc(NC(=O)c4cnccc4OC4CC4)cc3F)ccnc2c1` [Example 108, 4-cyclopropoxy-N-(3,5-difluoro-4-((7-((1-hydroxy-2-methylpropan-2-yl)oxy)quinolin-4-yl)oxy)phenyl)pyridine-3-carboxamide], the pEC50 (at Ba/F3-TPR-MET cells; in assay [1]) was 5.00 to 6.00 each time. Also, the pIC50 at MET D1228N and on MET was at least 7.00 each time.
For the compound `CNCCOc1cc2nccc(Oc3c(F)cc(NC(=O)c4cccnc4OC4CC4)cc3F)c2cc1OC` [Example 78, 2-cyclopropoxy-N-[3,5-difluoro-4-({6-methoxy-7-[2-(methylamino)ethoxy]quinolin-4-yl}oxy)phenyl]pyridine-3-carboxamide], the pEC50 (at Ba/F3-TPR-MET cells; in assay [1]) was 6.00 to 7.00 each time. Moreover, the pIC50 on MET D1228N and at MET was at least 7.00 in each case.
As to `COCCOc1ccc2c(Oc3c(F)cc(NC(=O)c4cnccc4OC)cc3F)ccnc2c1` [Example 42, N-(3,5-difluoro-4-{[7-(2-methoxyethoxy)quinolin-4-yl]oxy}phenyl)-4-methoxypyridine-3-carboxamide], the results for the pEC50 (at Ba/F3-TPR-MET cells; in assay [1]) were 6.00 to 7.00 and at least 7.00, respectively. For the same compound, the pIC50 on MET D1228N and on MET was at least 7.00 each time.
Turning to `CCCCOc1ccncc1C(=O)Nc1cc(F)c(Oc2ccnc3cc(OCCNC)c(OC)cc23)c(F)c1` [Example 69, 4-butoxy-N-[3,5-difluoro-4-({6-methoxy-7-[2-(methylamino)ethoxy]quinolin-4-yl}oxy)phenyl]pyridine-3-carboxamide], the pEC50 (on Ba/F3-TPR-MET cells; in assay [1]) was at least 7.00 in each case. Further, the pIC50 at MET D1228N and at MET was at least 7.00 each time.
Turning to `COc1ccc2c(Oc3c(F)cc(NC(=O)c4cnccc4OC4CC4)cc3F)ccnc2c1` [Example 90, 4-cyclopropoxy-N-{3,5-difluoro-4-[(7-methoxyquinolin-4-yl)oxy]phenyl}pyridine-3-carboxamide], the pEC50 at Ba/F3-TPR-MET cells is 6.00 to 7.00; in assay [1], at least 7.00. Besides, the pIC50 on MET D1228N and at MET was at least 7.00 in each case.
Turning to `COC[C@H](C)Oc1nc2c(Oc3c(F)cc(NC(=O)c4cnccc4OC)cc3F)ccnc2cc1OC` [Example 146, (S)-N-(3,5-difluoro-4-((7-methoxy-6-((1-methoxypropan-2-yl)oxy)-1,5-naphthyridin-4-yl)oxy)phenyl)-4-methoxynicotinamide], the pEC50 (at Ba/F3-TPR-MET cells; in assay [1]) was at least 7.00 throughout. Further, the pIC50 on MET D1228N and at MET was at least 7.00 each time.
Turning to `COc1cc2c(Oc3c(F)cc(NC(=O)c4cnccc4OC4CC4)cc3F)ccnc2cc1OCCO` [Example 97, 4-cyclopropoxy-N-(3,5-difluoro-4-{[7-(2-hydroxyethoxy)-6-methoxyquinolin-4-yl]oxy}phenyl)pyridine-3-carboxamide], the negative-log EC50 (pEC50) (at Ba/F3-TPR-MET cells; in assay [1]) was at least 7.00 throughout. In addition, the pIC50 on MET D1228N and on MET was at least 7.00 throughout.
On to “(S)-N-(4-((7-(2-aminopropoxy)quinolin-4-yl)oxy)-3,5-difluorophenyl)-4-cyclopropoxypyridine-3-carboxamide [Example 12]”, for which the pEC50 (at Ba/F3-TPR-MET cells; in assay [1]) was at least 7.00 each time. In addition, the pIC50 on MET D1228N and on MET was at least 7.00 throughout.
On to `CNCCOc1cc2nccc(Oc3cc(F)c(NC(=O)c4cnc(Cl)cc4OC)cc3F)c2cc1OC` [Example 26, 6-chloro-N-[2,5-difluoro-4-({6-methoxy-7-[2-(methylamino)ethoxy]quinolin-4-yl}oxy)phenyl]-4-methoxypyridine-3-carboxamide], for which the pIC50 on MET D1228N and at MET was at least 7.00 throughout.
Take `CNCCOc1cc2nccc(Oc3ccc(NC(=O)c4cnccc4OC(F)F)c(F)c3F)c2cc1OC` [Example 48, N-[2,3-difluoro-4-({6-methoxy-7-[2-(methylamino)ethoxy]quinolin-4-yl}oxy)phenyl]-4-(difluoromethoxy)pyridine-3-carboxamide]: the pIC50 at MET D1228N and on MET was at least 7.00 each time.
Regarding `CNCCOc1cc2nccc(Oc3ccc(NC(=O)c4cnccc4OC4CC4)c(F)c3F)c2cc1OC` [Example 83, 4-cyclopropoxy-N-[2,3-difluoro-4-({6-methoxy-7-[2-(methylamino)ethoxy]quinolin-4-yl}oxy)phenyl]pyridine-3-carboxamide], the pIC50 on MET D1228N and on MET was at least 7.00 in each case.
With `CNCCOc1cc2nccc(Oc3ccc(NC(=O)c4cnc(N)cc4OC)c(F)c3F)c2cc1OC` [Example 33, 6-amino-N-[2,3-difluoro-4-({6-methoxy-7-[2-(methylamino)ethoxy]quinolin-4-yl}oxy)phenyl]-4-methoxypyridine-3-carboxamide], the negative logarithm of the IC50 (pIC50) at MET D1228N and on MET was at least 7.00 each time.
In the case of `CCOc1ccncc1C(=O)Nc1cc(F)c(Oc2ccnc3cc(OCCNC)ccc23)c(F)c1` [Example 11, N-(3,5-difluoro-4-((7-(2-(methylamino)ethoxy)quinolin-4-yl)oxy)phenyl)-4-ethoxypyridine-3-carboxamide], the pIC50 at MET D1228N and at MET was at least 7.00 each time.
